Measured values: US11370798B2 (Vertex Pharmaceuticals Incorporated, priority 2012, dated 2022)

system: HCT116 colorectal cancer cells; test: Cisplatin sensitization assay (96 h cell viability MTS); type: cell-based; settings: compound and Cisplatin added simultaneously, Cisplatin sensitization value;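 note: Test-compound concentration that lowers the Cisplatin IC50 by a set fold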
Summary of the method: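 Compound and cisplatin added together as a full matrix of 2-fold serial dilutions from a top final concentration of 10 μM; cells incubated 96 h at 37° C, 5% CO2. Viability then read by MTS after 1 h further incubation; sensitization value reported in μM bins.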

**Q.** Which “Cisplatin Sensitization Assay” value does the source give for `N#CCc1cnc2c(C(=O)Nc3cnccc3O[C@H]3CCNC3)c(N)nn2c1` [I-O-86, (S)-2-amino-6-(cyanomethyl)-N-(4-(pyrrolidin-3-yloxy)pyridin-3-yl)pyrazolo[1,5-a]pyrimidine-3-carboxamide] here?
**A.** Its value is “++ (Cisplatin sensitization value>0.02 μM but <0.2 μM)”.

**Q.** `Cn1cncc1-c1ccncc1NC(=O)c1c(N)nn2cc(F)cnc12` [I-C-56, 2-amino-6-fluoro-N-(4-(1-methyl-1H-imidazol-5-yl)pyridin-3-yl)pyrazolo[1,5-a]pyrimidine-3-carboxamide] was tested. Which “Cisplatin Sensitization Assay” value did it give?
**A.** Its value is “+++ (Cisplatin sensitization value of <0.02 μM)”.

**Q.** For `Nc1nn2cc(Cl)cnc2c1C(=O)Nc1cnccc1N1CC[S+]([O-])CC1` [I-N-68, 2-amino-6-chloro-N-(4-(1-oxidothiomorpholino)pyridin-3-yl)pyrazolo[1,5-a]pyrimidine-3-carboxamide], which “Cisplatin Sensitization Assay” value is on record?
**A.** The value was “+++ (Cisplatin sensitization value of <0.02 μM)”.

**Q.** How did the “Cisplatin Sensitization Assay” value turn out when `Nc1nn2cc(F)cnc2c1C(=O)Nc1cncc(F)c1N1CCN(S(=O)(=O)C2CC2)CC1` [I-N-159, 2-amino-N-(4-(4-(cyclopropylsulfonyl)piperazin-1-yl)-5-fluoropyridin-3-yl)-6-fluoropyrazolo[1,5-a]pyrimidine-3-carboxamide] was run?
**A.** The value was “+++ (Cisplatin sensitization value of <0.02 μM)”.

**Q.** `CN1CCC(N(C)S(=O)(=O)C2CCN(c3c(F)cncc3NC(=O)c3c(N)nn4cc(F)cnc34)CC2)CC1` [I-N-148, 2-amino-6-fluoro-N-(5-fluoro-4-(4-(N-methyl-N-(1-methylpiperidin-4-yl)sulfamoyl)piperidin-1-yl)pyridin-3-yl)pyrazolo[1,5-a]pyrimidine-3-carboxamide] was tested. Which “Cisplatin Sensitization Assay” value did it give?
**A.** Its value is “+++ (Cisplatin sensitization value of <0.02 μM)”.

**Q.** How did the “Cisplatin Sensitization Assay” value turn out when `CN1CCN(c2c(F)cncc2NC(=O)c2c(N)nn3cc(Cl)cnc23)CC1` [I-N-14, 2-amino-6-chloro-N-(5-fluoro-4-(4-methylpiperazin-1-yl)pyridin-3-yl)pyrazolo[1,5-a]pyrimidine-3-carboxamide] was run?
**A.** The value was “+++ (Cisplatin sensitization value of <0.02 μM)”.

**Q.** With `Nc1nn2cc(F)cnc2c1C(=O)Nc1cnccc1-n1cccn1` [I-N-26, N-(4-(1H-pyrazol-1-yl)pyridin-3-yl)-2-amino-6-fluoropyrazolo[1,5-a]pyrimidine-3-carboxamide] as the compound, how does the “Cisplatin Sensitization Assay” value read?
**A.** The value was “+ (Cisplatin sensitization value>0.2 μM but <5 μM)”.

**Q.** With `COCCN(C)C(=O)C1CCN(c2c(F)cncc2NC(=O)c2c(N)nn3cc(F)cnc23)CC1` [I-G-40, 2-amino-6-fluoro-N-(5-fluoro-4-(4-((2-methoxyethyl)(methyl)carbamoyl)piperidin-1-yl)pyridin-3-yl)pyrazolo[1,5-a]pyrimidine-3-carboxamide] as the compound, how does the “Cisplatin Sensitization Assay” value read?
**A.** The value was “+++ (Cisplatin sensitization value of <0.02 μM)”.

**Q.** `Nc1nn2cc(F)cnc2c1C(=O)Nc1cncc(F)c1N1CCC(OCCN2CCCC2)CC1` [I-N-167, 2-amino-6-fluoro-N-(5-fluoro-4-(4-(2-(pyrrolidin-1-yl)ethoxy)piperidin-1-yl)pyridin-3-yl)pyrazolo[1,5-a]pyrimidine-3-carboxamide] was tested. Which “Cisplatin Sensitization Assay” value did it give?
**A.** Its value is “+++ (Cisplatin sensitization value of <0.02 μM)”.

**Q.** `Nc1nn2cc(F)cnc2c1C(=O)Nc1cncc(F)c1N1CCC(C(=O)N2CCC(N3CCCCC3)CC2)CC1` [I-G-60, N-(4-(4-([1,4′-bipiperidine]-1′-carbonyl)piperidin-1-yl)-5-fluoropyridin-3-yl)-2-amino-6-fluoropyrazolo[1,5-a]pyrimidine-3-carboxamide] was tested. Which “Cisplatin Sensitization Assay” value did it give?
**A.** Its value is “+++ (Cisplatin sensitization value of <0.02 μM)”.

**Q.** For `Nc1nn2cc(F)cnc2c1C(=O)Nc1cncc(F)c1OC1CCN(C2COC2)CC1` [I-O-91, 2-amino-6-fluoro-N-(5-fluoro-4-((1-(oxetan-3-yl)piperidin-4-yl)oxy)pyridin-3-yl)pyrazolo[1,5-a]pyrimidine-3-carboxamide], which “Cisplatin Sensitization Assay” value is on record?
**A.** Its value is “++ (Cisplatin sensitization value>0.02 μM but <0.2 μM)”.

**Q.** `Nc1nn2cc(F)cnc2c1C(=O)Nc1cncc(F)c1N1CCC(N2CCOCC2)CC1` [I-N-189, 2-amino-6-fluoro-N-(5-fluoro-4-(4-morpholinopiperidin-1-yl)pyridin-3-yl)pyrazolo[1,5-a]pyrimidine-3-carboxamide] was tested. Which “Cisplatin Sensitization Assay” value did it give?
**A.** Its value is “+++ (Cisplatin sensitization value of <0.02 μM)”.

**Q.** How did the “Cisplatin Sensitization Assay” value turn out when `Nc1nn2cc(F)cnc2c1C(=O)Nc1cnccc1N1CCC(S(=O)(=O)C2COC2)CC1` [I-N-200, 2-amino-6-fluoro-N-(4-(4-(oxetan-3-ylsulfonyl)piperidin-1-yl)pyridin-3-yl)pyrazolo[1,5-a]pyrimidine-3-carboxamide] was run?
**A.** The value was “+++ (Cisplatin sensitization value of <0.02 μM)”.

**Q.** How did the “Cisplatin Sensitization Assay” value turn out when `CN1C2CCC1CN(C(=O)C1CCN(c3c(F)cncc3NC(=O)c3c(N)nn4cc(F)cnc34)CC1)C2` [I-G-52, 2-amino-6-fluoro-N-(5-fluoro-4-(4-(8-methyl-3,8-diazabicyclo[3.2.1]octane-3-carbonyl)piperidin-1-yl)pyridin-3-yl)pyrazolo[1,5-a]pyrimidine-3-carboxamide] was run?
**A.** Its value is “+++ (Cisplatin sensitization value of <0.02 μM)”.

**Q.** `CN(C)C1CN(C(=O)C2CCN(c3c(F)cncc3NC(=O)c3c(N)nn4cc(F)cnc34)CC2)C1` [I-G-22, 2-amino-N-(4-(4-(3-(dimethylamino)azetidine-1-carbonyl)piperidin-1-yl)-5-fluoropyridin-3-yl)-6-fluoropyrazolo[1,5-a]pyrimidine-3-carboxamide] was tested. Which “Cisplatin Sensitization Assay” value did it give?
**A.** The value was “+++ (Cisplatin sensitization value of <0.02 μM)”.

**Q.** For `Nc1nn2cc(F)cnc2c1C(=O)Nc1cncc(F)c1N1CCN(C(=O)C23CCN(CC2)CC3)CC1` [I-N-134, 2-amino-6-fluoro-N-(5-fluoro-4-(4-(quinuclidine-4-carbonyl)piperazin-1-yl)pyridin-3-yl)pyrazolo[1,5-a]pyrimidine-3-carboxamide], which “Cisplatin Sensitization Assay” value is on record?
**A.** The value was “+ (Cisplatin sensitization value>0.2 μM but <5 μM)”.

**Q.** `Nc1nn2cc(F)cnc2c1C(=O)Nc1cnccc1C1CCN(C(=O)C23CCN(CC2)CC3)CC1` [I-C-18, 2-amino-6-fluoro-N-(4-(1-(quinuclidine-4-carbonyl)piperidin-4-yl)pyridin-3-yl)pyrazolo[1,5-a]pyrimidine-3-carboxamide] was tested. Which “Cisplatin Sensitization Assay” value did it give?
**A.** Its value is “+ (Cisplatin sensitization value>0.2 μM but <5 μM)”.

**Q.** `COc1ccc(-c2ccncc2NC(=O)c2c(N)nn3cc(F)cnc23)cn1` [I-C-27, 2-amino-6-fluoro-N-(6-methoxy-[3,4′-bipyridin]-3′-yl)pyrazolo[1,5-a]pyrimidine-3-carboxamide] was tested. Which “Cisplatin Sensitization Assay” value did it give?
**A.** Its value is “++ (Cisplatin sensitization value>0.02 μM but <0.2 μM)”.

**Q.** `Nc1nn2cc(F)cnc2c1C(=O)Nc1cnccc1-c1ccccn1` [I-C-60, N-([2,4′-bipyridin]-3′-yl)-2-amino-6-fluoropyrazolo[1,5-a]pyrimidine-3-carboxamide] was tested. Which “Cisplatin Sensitization Assay” value did it give?
**A.** Its value is “++ (Cisplatin sensitization value>0.02 μM but <0.2 μM)”.

**Q.** For `Nc1nn2cc(F)cnc2c1C(=O)Nc1cncc(C2CC2)c1N1CCN([C@H]2CCOC2)CC1` [I-N-120, (S)-2-amino-N-(5-cyclopropyl-4-(4-(tetrahydrofuran-3-yl)piperazin-1-yl)pyridin-3-yl)-6-fluoropyrazolo[1,5-a]pyrimidine-3-carboxamide], which “Cisplatin Sensitization Assay” value is on record?
**A.** The value was “+++ (Cisplatin sensitization value of <0.02 μM)”.

**Q.** Which “Cisplatin Sensitization Assay” value does the source give for `Nc1nn2cc(F)cnc2c1C(=O)Nc1cncc(F)c1N1CCC(C(=O)N2CCNC3(CC3)C2)CC1` [I-G-28, N-(4-(4-(4,7-diazaspiro[2.5]octane-7-carbonyl)piperidin-1-yl)-5-fluoropyridin-3-yl)-2-amino-6-fluoropyrazolo[1,5-a]pyrimidine-3-carboxamide] here?
**A.** Its value is “+++ (Cisplatin sensitization value of <0.02 μM)”.
